What was measured:
Assay in all cases: Test D pre-/postemergence plant response
Assay type in all cases: in vivo
[1] = system: bluegrass (annual bluegrass, Poa annua)
Procedure, shortened: (§1)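 Visual 0–100 scoring (100 = complete control) versus untreated controls after 14–21 greenhouse days. Compounds, formulated in surfactant-containing non-phytotoxic solvent, were applied preemergence to seeded loam/sand and postemergence to 2–18 cm plants (1–4 leaves).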

[2] = system: dayflower (Virginia (VA) dayflower, Commelina virginica)
Procedure, shortened: as §1

[3] = system: johnsongrass (Sorghum halepense)
Procedure, shortened: as §1

[4] = system: barnyardgrass (Echinochloa crus-galli)
Procedure, shortened: as §1

[5] = system: spanishneedles (Bidens bipinnata)
Procedure, shortened: as §1

[6] = system: Russian thistle (Salsola kali)
Procedure, shortened: as §1

[7] = system: groundsel (common groundsel, Senecio vulgaris); details: Postemergence
Procedure, shortened: as §1

[8] = system: purslane (common purslane, Portulaca oleracea)
Procedure, shortened: as §1

[9] = system: large crabgrass (Digitaria sanguinalis)
Procedure, shortened: as §1

[10] = system: itchgrass (Rottboellia cochinchinensis)
Procedure, shortened: as §1

kochia (Kochia scoparia) = system: kochia (Kochia scoparia)
Procedure, shortened: as §1

[11] = system: Surinam grass (Brachiaria decumbens)
Procedure, shortened: as §1

[12] = system: green foxtail (Setaria viridis)
Procedure, shortened: as §1

[13] = system: signalgrass (broadleaf signalgrass, Brachiaria platyphylla)
Procedure, shortened: as §1

[14] = system: guineagrass (Panicum maximum)
Procedure, shortened: as §1

[15] = system: ragweed (common ragweed, Ambrosia elatior)
Procedure, shortened: as §1

[16] = system: mallow (common mallow, Malva sylvestris)
Procedure, shortened: as §1

[17] = system: morningglory (pitted morningglory, Ipomoea lacunosa)
Procedure, shortened: as §1

[18] = Postemergence, 31 g ai/ha, scale 0 to 100
[19] = Postemergence, 62 g ai/ha, scale 0 to 100 (0 no effect, 100 complete control)
[20] = Postemergence, 125 g ai/ha, scale 0 to 100 (0 no effect, 100 complete control)
[21] = Postemergence, 250 g ai/ha, scale 0 to 100 (0 no effect, 100 complete control)
[22] = Preemergence, 62 g ai/ha, scale 0 to 100
[23] = Preemergence, 125 g ai/ha, scale 0 to 100
[24] = Preemergence, 250 g ai/ha, scale 0 to 100

For `COCCn1c(-c2cc(F)cc(F)c2)ncc(C(=O)C2=C(O)C3CCC(C3)C2=O)c1=O` (stereo not drawn) [Compound 243, 2-(3,5-difluorophenyl)-5-[(2-hydroxy-4-oxobicyclo[3.2.1]oct-2-en-3-yl)carbonyl]-3-(2-methoxyethyl)-4(3H)-pyrimidinone], the “Plant response rating, Bluegrass” value [1, 18] was 5, the “Plant response rating, Bluegrass” value [1, 19] was 5 and the “Plant response rating, Bluegrass” value [1, 20] was 35. For the same molecule, the “Plant response rating, Bluegrass” value [1, 21] was 35, the “Plant response rating, Bluegrass” value [1, 22] was 40 and the “Plant response rating, Bluegrass” value [1, 23] was 95. For the same molecule, the “Plant response rating, Bluegrass” value [1, 24] was 100, the “Plant response rating, Dayflower, VA” value [2, 18] was 35 and the “Plant response rating, Dayflower, VA” value [2, 19] was 65. The “Plant response rating, Dayflower, VA” value [2, 20] was 70, the “Plant response rating, Dayflower, VA” value [2, 21] was 75 and the “Plant response rating, Dayflower, VA” value [2, 22] was 100. The “Plant response rating, Dayflower, VA” value [2, 23] was 100, the “Plant response rating, Dayflower, VA” value [2, 24] was 100 and the “Plant response rating, Johnsongrass” value [3, 18] was 70. For the same molecule, the “Plant response rating, Johnsongrass” value [3, 19] was 70, the “Plant response rating, Johnsongrass” value [3, 20] was 70 and the “Plant response rating, Johnsongrass” value [3, 21] was 75. For the same molecule, the “Plant response rating, Johnsongrass” value [3, 22] was 100, the “Plant response rating, Johnsongrass” value [3, 23] was 100 and the “Plant response rating, Johnsongrass” value [3, 24] was 100. The “Plant response rating, Barnyardgrass” value [4, 18] was 75, the “Plant response rating, Barnyardgrass” value [4, 19] was 80 and the “Plant response rating, Barnyardgrass” value [4, 20] was 80. For the same molecule, the “Plant response rating, Barnyardgrass” value [4, 21] was 90, the “Plant response rating, Barnyardgrass” value [4, 22] was 100 and the “Plant response rating, Barnyardgrass” value [4, 23] was 100. The “Plant response rating, Barnyardgrass” value [4, 24] was 100, the “Plant response rating, Spanishneedles” value [5, 18] was 60 and the “Plant response rating, Spanishneedles” value [5, 19] was 65. For the same molecule, the “Plant response rating, Spanishneedles” value [5, 20] was 70, the “Plant response rating, Spanishneedles” value [5, 21] was 70 and the “Plant response rating, Spanishneedles” value [5, 23] was 100. The “Plant response rating, Spanishneedles” value [5, 24] was 100, the “Plant response rating, Russian Thistle” value [6, 18] was 20 and the “Plant response rating, Russian Thistle” value [6, 19] was 30. The “Plant response rating, Russian Thistle” value [6, 20] was 30, the “Plant response rating, Russian Thistle” value [6, 21] was 60 and the “Plant response rating, Russian Thistle” value [6, 23] was 100. For the same molecule, the “Plant response rating, Russian Thistle” value [6, 24] was 100, the “Plant response rating, Groundsel” value ([7]; 31 g ai/ha, scale 0 to 100) was 98 and the “Plant response rating, Groundsel” value ([7]; 62 g ai/ha, scale 0 to 100 (0 no effect, 100 complete control)) was 100. For the same molecule, the “Plant response rating, Groundsel” value ([7]; 125 g ai/ha, scale 0 to 100 (0 no effect, 100 complete control)) was 100, the “Plant response rating, Groundsel” value ([7]; 250 g ai/ha, scale 0 to 100 (0 no effect, 100 complete control)) was 100 and the “Plant response rating, Purslane” value [8, 18] was 35. The “Plant response rating, Purslane” value [8, 19] was 50, the “Plant response rating, Purslane” value [8, 20] was 50 and the “Plant response rating, Purslane” value [8, 21] was 50. The “Plant response rating, Purslane” value [8, 22] was 95, the “Plant response rating, Purslane” value [8, 23] was 100 and the “Plant response rating, Purslane” value [8, 24] was 100. For the same molecule, the “Plant response rating, Crabgrass, Large” value [9, 18] was 75, the “Plant response rating, Crabgrass, Large” value [9, 19] was 80 and the “Plant response rating, Crabgrass, Large” value [9, 20] was 85. For the same molecule, the “Plant response rating, Crabgrass, Large” value [9, 21] was 85, the “Plant response rating, Crabgrass, Large” value [9, 22] was 100 and the “Plant response rating, Crabgrass, Large” value [9, 23] was 100. The “Plant response rating, Crabgrass, Large” value [9, 24] was 100, the “Plant response rating, Itchgrass” value [10, 18] was 75 and the “Plant response rating, Itchgrass” value [10, 19] was 75. The “Plant response rating, Itchgrass” value [10, 20] was 75, the “Plant response rating, Itchgrass” value [10, 21] was 85 and the “Plant response rating, Itchgrass” value [10, 22] was 25. For the same molecule, the “Plant response rating, Itchgrass” value [10, 23] was 50, the “Plant response rating, Itchgrass” value [10, 24] was 100 and the “Plant response rating, Kochia” value (kochia (Kochia scoparia); [18]) was 50. For the same molecule, the “Plant response rating, Kochia” value (kochia (Kochia scoparia); [19]) was 60, the “Plant response rating, Kochia” value (kochia (Kochia scoparia); [20]) was 70 and the “Plant response rating, Kochia” value (kochia (Kochia scoparia); [21]) was 75. For the same molecule, the “Plant response rating, Kochia” value (kochia (Kochia scoparia); [22]) was 80, the “Plant response rating, Kochia” value (kochia (Kochia scoparia); [23]) was 100 and the “Plant response rating, Kochia” value (kochia (Kochia scoparia); [24]) was 100. The “Plant response rating, Surinam Grass” value [11, 18] was 75, the “Plant response rating, Surinam Grass” value [11, 19] was 75 and the “Plant response rating, Surinam Grass” value [11, 20] was 75. For the same molecule, the “Plant response rating, Surinam Grass” value [11, 21] was 85, the “Plant response rating, Surinam Grass” value [11, 23] was 100 and the “Plant response rating, Surinam Grass” value [11, 24] was 100. For the same molecule, the “Plant response rating, Foxtail, Green” value [12, 18] was 80, the “Plant response rating, Foxtail, Green” value [12, 19] was 85 and the “Plant response rating, Foxtail, Green” value [12, 20] was 90. For the same molecule, the “Plant response rating, Foxtail, Green” value [12, 21] was 98, the “Plant response rating, Foxtail, Green” value [12, 22] was 35 and the “Plant response rating, Foxtail, Green” value [12, 23] was 100. For the same molecule, the “Plant response rating, Foxtail, Green” value [12, 24] was 100, the “Plant response rating, Signalgrass” value [13, 18] was 50 and the “Plant response rating, Signalgrass” value [13, 19] was 75. For the same molecule, the “Plant response rating, Signalgrass” value [13, 20] was 75, the “Plant response rating, Signalgrass” value [13, 21] was 95 and the “Plant response rating, Signalgrass” value [13, 23] was 95. The “Plant response rating, Signalgrass” value [13, 24] was 100, the “Plant response rating, Guineagrass” value [14, 18] was 70 and the “Plant response rating, Guineagrass” value [14, 19] was 75. The “Plant response rating, Guineagrass” value [14, 20] was 75, the “Plant response rating, Guineagrass” value [14, 21] was 85 and the “Plant response rating, Guineagrass” value [14, 22] was 100. The “Plant response rating, Guineagrass” value [14, 23] was 100, the “Plant response rating, Guineagrass” value [14, 24] was 100 and the “Plant response rating, Ragweed” value [15, 18] was 65. The “Plant response rating, Ragweed” value [15, 19] was 70, the “Plant response rating, Ragweed” value [15, 20] was 75 and the “Plant response rating, Ragweed” value [15, 21] was 75. The “Plant response rating, Ragweed” value [15, 23] was 100, the “Plant response rating, Ragweed” value [15, 24] was 100 and the “Plant response rating, Mallow” value [16, 18] was 50. For the same molecule, the “Plant response rating, Mallow” value [16, 19] was 60, the “Plant response rating, Mallow” value [16, 20] was 70 and the “Plant response rating, Mallow” value [16, 21] was 70. The “Plant response rating, Mallow” value [16, 22] was 50, the “Plant response rating, Mallow” value [16, 23] was 80 and the “Plant response rating, Mallow” value [16, 24] was 98. For the same molecule, the “Plant response rating, Morningglory” value [17, 18] was 75, the “Plant response rating, Morningglory” value [17, 19] was 85 and the “Plant response rating, Morningglory” value [17, 20] was 85. The “Plant response rating, Morningglory” value [17, 21] was 85, the “Plant response rating, Morningglory” value [17, 23] was 98 and the “Plant response rating, Morningglory” value [17, 24] was 100.

Reference: patent US8952024B2, “Herbicidal pyrimidone derivatives” (E I du Pont de Nemours and Company, priority 2009, dated 2015)
